The conditions of data set [1]: weight gain, diabetes risk, dyslipidemia risk; cited from earlier work.
Data set [2] can be described thus: Pharmacokinetic study, intramuscular injection, four arm parallel. In kind it is in vivo, male Sprague-Dawley Rats. Conditions: male, Sprague-Dawley, im, rat. How it is done:
A long acting formulation is expected to suppress the maximum blood concentration (Cmax) and maintain therapeutic blood profiles for an extended period of time. […] To evaluate the in-vivo performance of our formulations, three suspensions of Lurasidone HCl were prepared with varying particle size and/or viscosity at 100 mg/mL with compositions given in Table 23, and with processes shown in FIGS. 11, 12 and 13 for Suspensions 1, 2, and 3, respectively. As a control, a solution of Lurasidone HCl was prepared at 2.5 mg/mL. […]
The blood samples were collected, placed into chilled tubes containing sodium heparin, inverted several times to mix, and kept on ice until centrifugation. […] Samples were analyzed with LC-MS/MS against an eight point standard curve with concentrations ranging from 0.05 ng/mL to 100 ng/mL. […]
Mass Spectrometer Conditions • Instrument: PE Sciex API4000 • Interface: Electrospray (“Turbo Ion Spray”) • Mode: Multiple reactions monitoring (MRM) • Gases: CUR 20, CAD 10, GS1 50, GS2 50 • Source Temperature: 500° C. • Voltages and Ions Monitored:
The formulations were well tolerated, and no adverse local or systemic reactions were observed following intramuscular administration of lurasidone to the animals. (Pharmacokinetic parameters were calculated with Phoenix WinNonlin version 6.4). […]

For data set [3] the following is noted: after oral administration of a 40 mg tablet; package insert; cited from earlier work.
The conditions of data set [4]: pH dependence; cited from earlier work.

We go through four compounds from patent US20170196802A1, “Long Acting Injectable Formulations” (Abon Pharmaceuticals, LLC, priority 2016, published 2017).

Read-outs that look alike come from different tables or passages of the source.

With `CN1CCN(C2=Nc3cc(Cl)ccc3Nc3ccccc32)CC1` [clozapine], in data set [1], the metabolic effects result is reported as “moderate to high”.
As for `O=C1[C@@H]2[C@H]3CC[C@H](C3)[C@@H]2C(=O)N1C[C@@H]1CCCC[C@H]1CN1CCN(c2nsc3ccccc23)CC1` [lurasidone], the half-life (usually the time needed for the level to fall by half in the phase considered) is 10 h in data set [2] (1.5 mg/kg, calculated based on terminal phase plasma concentrations above 2% of Cmax); ≤ 505 h in data set [2] (plasma, 45 mg/kg); 18 h in data set [3]. In addition, the metabolic effects result in data set [1] is given as “low”. In addition, the solubility profile result in data set [4] is listed as “lower solubility at higher pH values”.
Consider `Cc1cc2c(s1)Nc1ccccc1N=C2N1CCN(C)CC1` [olanzapine], for which the metabolic effects entry in data set [1] is given as “moderate to high”.
For `OCCOCCN1CCN(C2=Nc3ccccc3Sc3ccccc32)CC1` [quetiapine], the metabolic effects entry in data set [1] is on record as “moderate to high”.
